{"source": "paper PMC12670426", "about": "(Journal of Medicinal Chemistry, 2025)", "key": {"[1]": {"target": "T1, human galectin-1 (Gal-1, full length) (Homo sapiens, UniProt P09382)", "T1 construct": "Gal-1 is a prototype galectin consisting of a single CRD and was used in full length; 6xHis tag with TEV protease site (N, cleaved yes); made in house; host or cells: BL21 Escherichia coli (pET-15b)", "T1 sequence (P09382 2-135)": "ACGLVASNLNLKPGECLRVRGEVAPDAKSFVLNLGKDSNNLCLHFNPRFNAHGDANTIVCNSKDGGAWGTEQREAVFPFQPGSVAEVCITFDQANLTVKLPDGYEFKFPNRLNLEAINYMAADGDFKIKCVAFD", "test": "Competitive fluorescence polarization assay, Gal-1", "format": "binding", "method_in_brief": "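Competitive fluorescence polarization (anisotropy) with a fluorescent probe; full-length Gal-1 and C-terminal CRD construct of Gal-3. Read after 30–60 min incubation at 25 °C. Kd fitted with Wang's exact cubic competitive model, rmin/rmax fixed from direct binding.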"}, "[2]": {"test": "Plasma protein binding, summary across species", "format": "in vitro ADME", "conditions": "summary across human, mouse and rat plasma", "procedure": "Test compound (10 μM) was incubated at 37 °C for 4 h with mouse, rat, or human plasma (Biowest) in the donor well of a rapid equilibrium dialysis plate (Thermo Fisher Scientific). PBS was placed in the acceptor well. To stop the assay, samples were collected from both wells, and an equal volume of plasma was added to the PBS sample, and vice versa. Proteins were then precipitated by adding three volumes of ice-cold methanol. Samples were mixed gently, kept at −20 °C for 30 min, and then stored at 4 °C overnight. The next day, the samples were centrifuged, and the supernatants were diluted with four volumes of 30% methanol in water. The samples were then analyzed using the Echo-MS system (SCIEX) with MRM transition monitoring, except for compound 3af, which was analyzed by LC–MS/MS as described in the plasma stability assay."}, "[3]": {"test": "Kinetic solubility assay in PBS", "format": "physicochemical", "conditions": "aqueous buffer, kinetic from dmso stock; PBS at pH 7.4, 100 μM final, 2 h room temperature", "procedure": "The solutions were incubated at room temperature for 2 h and filtered by centrifugation. Filtrates were diluted 100-fold with 50% acetonitrile in water and then analyzed on the Echo-MS system (SCIEX) using MRM transition monitoring, except for compound 3af, which was analyzed by LC–MS/MS as described in the plasma stability assay. Compound concentrations were quantified against calibration curves prepared in the identical matrix as the samples."}, "[4]": {"test": "Cytotoxicity assay, HEK293", "format": "cell-based", "conditions": "human, HEK293 cells, viability dye, flow cytometry", "procedure": "(§1) To evaluate in vitro cytotoxicity and support its potential application in inflammatory and fibrotic disease models, the following panel of cell lines, representing the relevant biological systems, was used: HEK293, HepG2, THP1, Jurkat E6.1, and LX2. HEK293, HepG2, and Jurkat E6.1 cells were seeded at 400,000 cells/mL, THP1 cells at 500,000 cells/mL, and LX2 cells at 200,000 cells/mL in 96-well plates (cell culture-treated, VWR) in 100 μL/well. Cells were treated with the tested compounds in a serial dilution (300, 100, 33.3, 11.1, and 3.7 μM) for 24 h. Untreated cells served as negative controls to establish the baseline viability threshold. Cell viability was assessed using a viability dye (Zombie Violet Fixable Viability Kit, BioLegend) following the manufacturer’s instructions and analyzed by flow cytometry (see below).\n(§2) Cells or beads from screening assays prepared for flow cytometry were analyzed by the CytoFlex S instrument (Beckman Coulter). Data acquisition was performed using CytExpert software (v2.5, Beckman Coulter). Debris was excluded by forward and side scatter gating, followed by doublet exclusion. Data were analyzed using FlowJo software (v10, BD Biosciences)."}, "[5]": {"test": "Cytotoxicity assay, HepG2", "format": "cell-based", "conditions": "human, HepG2 cells, viability dye, flow cytometry", "procedure": "as §1, §2"}, "Cytotoxicity assay, THP1": {"test": "Cytotoxicity assay, THP1", "format": "cell-based", "conditions": "human, THP1 cells, viability dye, flow cytometry", "procedure": "as §1, §2"}, "[6]": {"target": "T2, intracellular Gal-3 in THP1 cells (Homo sapiens, UniProt P17931)", "T2 construct": "Untreated cells served as negative and baseline controls representing maximum intracellular Gal-3 levels; endogenous in cells; host or cells: THP1 (monocyte-like or PMA-differentiated macrophage-like)", "T2 sequence (P17931 whole entry)": "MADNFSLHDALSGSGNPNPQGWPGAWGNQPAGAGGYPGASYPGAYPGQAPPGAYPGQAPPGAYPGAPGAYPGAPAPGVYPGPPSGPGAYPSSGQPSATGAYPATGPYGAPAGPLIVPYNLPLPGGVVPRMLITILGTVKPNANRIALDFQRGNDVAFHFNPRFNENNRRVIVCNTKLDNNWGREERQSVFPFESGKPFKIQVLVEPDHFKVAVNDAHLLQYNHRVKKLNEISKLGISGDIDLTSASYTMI", "test": "Intracellular Gal-3 target engagement in THP1 cells (flow cytometry, MFI)", "format": "cell-based", "conditions": "2 h", "procedure": "THP1 cells were used to assess the binding of the tested compounds to Gal-3. Cells were either maintained in suspension as undifferentiated monocyte-like cells or differentiated into macrophage-like cells by overnight treatment with phorbol 12-myristate 13-acetate (PMA, Sigma-Aldrich) at a final concentration of 10 ng/mL. […] Untreated cells served as negative and baseline controls representing maximum intracellular Gal-3 levels. Cells were then harvested and intracellularly stained either with galectin-3 monoclonal antibody eF660 (Invitrogen, Thermo Fisher Scientific) or a relevant isotype antibody (Invitrogen, Thermo Fisher Scientific) for flow cytometric analyses (see below). A dose-dependent decrease in Gal-3 signal upon compound treatment was used to assess intracellular target engagement expressed as median fluorescent intensity (MFI).\nas §2"}}, "note": "Like-named read-outs stand apart in the source and are kept apart here."}
{"smiles": "CC(=O)N(c1cc(C(=O)O)cc2[nH]ccc12)[C@@H]1O[C@H](CO)[C@@H](S[C@@H]2O[C@H](CO)[C@H](O)[C@H](n3cc(-c4cccc(F)c4)nn3)[C@H]2O)[C@H](O)[C@H]1O", "note": "[Compound 11, N-[4-S-(3-Deoxy-3-(4-(3-fluorophenyl)-1H-1,2,3-triazol-1-yl)-β-D-galactopyranosyl)-4-thio-β-D-glucopyranosyl]-N-(6-carboxy-1H-indol-4-yl)acetamide]", "values": [{"measurement": "IC50", "setting": "[1]; CSV supplement, unrounded mean, read-out: Gal1_IC50_mean_uM", "result": 4.34, "unit": "µM"}, {"measurement": "Kd", "setting": "[1]; CSV supplement, unrounded mean, read-out: Gal1_Kd_mean_uM", "result": 2.18, "unit": "µM"}, {"measurement": "Kd", "setting": "[1]; competitive fluorescence polarization, mean ± SD, read-out: Kd Gal-1", "result": "2.2 ± 0.3", "unit": "µM"}, {"measurement": "IC50", "setting": "[1]; four-parameter logistic model, mean ± SD, read-out: IC50 Gal-1", "result": "4.3 ± 0.2", "unit": "µM"}, {"measurement": "fraction unbound at 4 h, 10 μM", "setting": "[2]", "result": "0.1 to 0.78"}, {"measurement": "solubility kinetic at 2 h", "setting": "[3]", "result": "> 100", "unit": "µM"}, {"measurement": "CC50 at 24 h", "setting": "[4]", "result": "> 300", "unit": "µM"}, {"measurement": "CC50 at 24 h", "setting": "[5]", "result": "> 300", "unit": "µM"}, {"measurement": "CC50 at 24 h", "setting": "Cytotoxicity assay, THP1", "result": "> 300", "unit": "µM"}, {"measurement": "intracellular Gal-3 signal (MFI), macrophage-like THP1 cells", "setting": "[6]; (+)PMA differentiated THP1, 3.7–300 μM", "result": "concentration-dependent reduction"}, {"measurement": "intracellular Gal-3 signal (MFI), monocyte-like THP1 cells", "setting": "[6]; (−)PMA undifferentiated THP1, 3.7–300 μM", "result": "concentration-dependent reduction"}]}
